The source of these data is patent US20230142353A1, “IMPLANT DEVICES AND METHODS FOR TREATMENT OF CERVICAL CANCER” (Washington University, priority 2020, published 2023).

The conditions of data set [1]: 24 hours after IV injection of 100 mg/m^2; cited from earlier work.
Data set [2] has as its system C33A subcutaneous cervical tumors. In words: In vivo efficacy, tumor progression with or without radiation. On the set-up: species or system athymic nude mice. As to the method: C33A cells (2×10^6/mouse) were suspended in 50% Matrigel and 50% DMEM media. The suspended C33A cells were injected subcutaneously around the lower back of 42 female athymic nude mice that were 6 to 8 weeks old. Tumor progression was confirmed after 3 weeks, and mice were then randomized into 6 groups (n=7) and treated with: (1) tail vein injection of PBS (Vehicle-IV), (2) Cis-Pt-IV at 1 mg/kg, (3) Cis-Pt-Implant at 1 mg Cis-Pt/kg, (4) Vehicle-IV+radiation (5 days×2 Gy/day), (5) Cis-Pt-IV+radiation, and (6) Cis-Pt-Implant+radiation.
In a separate experiment, the effect of a fractionated radiation dose was compared to a single high dose of radiation administered concurrently with Cis-Pt-Implants. C33A cells (2×10^6/mouse) were suspended in 50% Matrigel and 50% DMEM media. The suspended C33A cells were injected subcutaneously around the lower back of 14 female athymic nude mice that were 6 to 8 weeks old (Charles Rivers Laboratories). Tumor progression was confirmed after 3 weeks, mice were then intratumorally implanted with Cis-Pt-loaded implant (1 mg/kg) and randomized into 2 groups (n=7), treated with: (1) fractionated radiation (5 days×2 Gy/d), mimicking external beam radiation; or (2) a single high dose of 8 Gy, mimicking brachytherapy.
For the in vivo experiments above, tumor progression was monitored by measurement of tumor sizes in all treatment groups every 2 days. […]

Data set [3] concerns cervical cancer cell lines C33A, Me-180, HT3, Caski, and SiHa. The experiment in a line: In vitro cytotoxicity of Cis-Pt, MTT assay. Format: cell-based, Human. The following applies: average dose-response curve of 5 cell lines, 48 hours, read-out: average IC50 (Av-IC50).
Experimental: Human cervical cancer cell lines C33A, Me-180, HT3, Caski, and SiHa were purchased from American Type Culture Collection (ATCC; Manassas, Va.). Cell lines were cultured in Dulbecco's Modified Eagle Medium (DMEM; Gibco Life Technologies, Grand Island, N.Y.) supplemented with 10% fetal bovine serum (FBS; Gibco Life Technologies), 2 mmol/L of L-glutamine, 100 ng/mL penicillin, and 100 ng/mL streptomycin (Corning CellGro, Mediatech, Manassas, Va.). All cells were cultured at 37° C., 5% CO2 in a NuAire water jacket incubator (Plymouth, Minn.).
The in vitro cytotoxicity on cervical cancer cell lines was assessed using an MTT assay (Sigma Aldrich). Briefly, cells were seeded at 5×10^3 cells/well in 96-well plates overnight at 37° C. to promote their adhesion to the plates. […] After 48 hours of treatment, MTT solution was added to the cells for 3 hours, and then the stop solution was added to dissolve the formazan crystals overnight. The wells were read with SpectraMax i3 multimode microplate spectrophotometer (Molecular Devices, San Jose, Calif.) at 570 nm. Dose-response curves were graphed and the average dose-response curve was calculated.
The nature of data set [4]: In vivo biodistribution of Pt in subcutaneous C33A tumor model (ICP-MS). On the set-up: species or system athymic nude mice. The note with it: systemic (IV injection) delivery, 1 mg/kg, 24 hours.
Data set [5] has as its system C33A cervical cancer cells. The experiment in a line: In vitro clonogenic survival. The class given is cell-based, Human. The note with it: for clonogenic growth: with or without radiation. As to the method: C33A cervical cancer cells (0.5×10^6 cells/condition) were plated in T25 flasks 24 hours before treatment. Cells were treated with Cis-Pt at 0, 1, 3, or 6 μM for 4 hours, and subjected to irradiation at 0 or 6 Gy (4 Gy/min). Cells were then lifted with trypsin, counted, and were plated in triplicates for each condition at 500 cells per well in 24 well plates. After 12 days of culture, cells were fixed and stained with 0.5% Crystal Violet (Sigma Aldrich) in methanol, washed, and dried.

Data set [6] in a line: Pt accumulation in cervical cancer patient biopsies (ICP-MS). Format: in vivo, Human. The following applies: for drug accumulation in patient tissues lower than in cell lines at in vitro efficacious concentration: patient biopsies vs cell lines treated at 6 μM. The method, then: Patients with biopsy-proven cervical carcinoma were enrolled into an institutional review board-approved prospective study in which cervical tumor biopsies were obtained 3 weeks into chemoradiation treatment. All patients were treated with definitive chemoradiation treatment, which consisted of external beam radiation therapy to the pelvis (50.4 Gy) 4 days per week using intensity-modulated radiation therapy with a split-pelvis technique with 6 weekly brachytherapy boosts to a dose of 6.5 Gy per fraction to point A, starting at week 1. Concurrent with radiation therapy, all patients received the conventional treatment of cisplatin (40 mg/m^2, intravenous [IV]) weekly. Cervical tumor samples were collected immediately before delivery of the third brachytherapy treatment, approximately half-way through the treatment course. Samples were collected, immediately snap-frozen, and processed for storage. The average time between cisplatin administration and biopsy was 4.5 days (range, 1-17 days).
To determine tissue Cis-Pt accumulation within the patient biopsy samples, tissue digestion and inductively coupled plasma mass spectrometry (ICP-MS) were performed to quantify the levels of Pt in the samples. Briefly, biopsy samples were thawed and precisely weighed (±0.1 mg) before being digested in concentrated nitric acid (HNO3) overnight. Samples were then diluted with deionized water to a final 5% HNO3 (v/v) and digested using a microwave digestion system (MARS 6 Microwave Digestion System, CEM, Matthews, N.C.) at 200° C. for 45 minutes. Samples were analyzed with ICP-MS (ELAN DRC II ICP-MS, Perkin Elmer, Inc, Waltham, Mass.) for Pt content, against a calibration curve of Pt standards of 0, 0.1, 1, 10, 50, 100, and 250 parts per billion (ppb) in 5% HNO3, which were prepared from 10 parts per million Pt standard solution (Inorganic Ventures, Christiansburg, Va.). Terbium was used as an internal standard throughout the ICP-MS analysis. The average Pt content in clinical biopsies (Av-Pt-Clin) was calculated.
[…]

Data set [7] has as its system Cervical cancer cell lines. In words: In vitro radio-sensitization with Cis-Pt, MTT assay and combination index. Format: cell-based, Human. The note with it: for sensitization to radiation therapy: 6 Gy. The method, then:
Clinically relevant Pt concentration (Clin-conc) was estimated as a fraction of Av-IC50 based on the relative difference between tissue Pt contents in clinical biopsies and in vitro: Av-IC50×(Av-Pt-Clin/Av-Pt-in vitro). The radiosensitizing effect of Cis-Pt on cervical cancer cell lines was assessed using an MTT assay. Briefly, cells were treated with or without Cis-Pt at Av-IC50 (6 μM) or Clin-conc (1 μM) for a duration of 24 or 48 hours. Additionally, cells were also treated with or without a single-fraction dose of 6 Gy (4 Gy/min) using an RS2000 160 kV x-ray Irradiator equipped with a 0.3-mm copper filter (Rad Source Technologies Inc, Buford, Ga.), at the beginning of the treatment. At the end of each treatment, an MTT assay was performed to determine the survival of the cells.
The combination effect between Cis-Pt treatment and radiation was evaluated by calculating the combination index (CI) using the formula: CI=(Ea×Eb)/Eab, where Ea and Eb are the individual effects (fractional killing, 0≤Ei≤1) and Eab is the combination effect of drugs a and b. This index represents the ratio between the predicted combination effect and the actual combination effect. When the CI=1, the effect is additive. When the CI<1, the effect is supra-additive; when CI>1, the effect is sub-additive.

For data set [8], the system named is Cervical cancer cell lines. The experiment in a line: Pt content in cell lines in vitro (ICP-MS). Format: cell-based, Human. The note with it: treated at 6 μM (Av-IC50) for 48 hours, average. As to the method: Cervical cancer cell lines (10×10^6 cells) were treated Cis-Pt at Av-IC50 for 48 hours. Cells were then lifted with trypsin (0.05% Trypsin-EDTA, Gibco Life Technologies), spun down, and washed 3 times, to eliminate free Cis-Pt. Cell pellets were then weighed, digested, and analyzed by ICP-MS, and the average Pt content in cell lines in vitro (Av-Pt-in vitro) was calculated.

As a reminder, the IC50 is the concentration that gives 50% inhibition. Turning to `N.N.[Cl][Pt][Cl]` [Cis-Pt, cis-Diammineplatinum(II) dichloride], the “intratumoral platinum (Pt) concentration” value in data set [1] is recorded as 0.9 ng/mg. The “treatment outcome with fractionated radiation” value in data set [2] (systemic delivery 1 mg/kg + 2 Gy×5 days) is recorded as “improved treatment outcome compared with radiation alone”. For the same compound, the tumor progression entry in data set [2] (systemic delivery (IV) 1 mg/kg, without radiation) is “did not alter tumor progression”. Further, the IC50 in data set [3] was 6 µM. The “Pt concentration in the tumor” value in data set [4] is listed as 53 ng Pt/g tissue. In data set [5] (1 μM, alone or in combination with radiation (6 Gy)), the clonogenic cell survival result is recorded as “unable to limit clonogenic cell survival”. In addition, the clonogenic growth entry in data set [5] (3 μM) and in data set [5] (6 μM) was “significantly restricted clonogenic growth” in each case. Besides, the “Pt levels detected in patient tissues” value in data set [6] (40 mg/m^2 IV weekly, biopsies about 3 weeks into chemoradiation, average of 20) was “about 430 ng Pt/g tissue”. Also, the “influence of time of biopsy since last injection on Pt level within the tumor” value in data set [6] (1-17 days after injection) is “not a major factor”. For the same compound, the “drug accumulation in patient tissues lower than in cell lines at in vitro efficacious concentration” value in data set [6] is given as “about 6 fold”; in data set [6] (listed as Cisplatin) it was 6 fold. Besides, the “sensitization to radiation therapy” value was “limited radio-sensitization” in data set [7] (1 μM Cis-Pt) and “significant sensitization to radiation therapy in all cell lines” in data set [7] (6 μM Cis-Pt). For the same compound, the “combination effect of Cis-Pt and radiation by CI” value is “sub-additive” in data set [7] (1 μM treatment) and “supra-additive” in data set [7] (6 μM treatment). Moreover, the “Pt levels in cell lines” value in data set [8] is given as “about 2560 ng Pt/g tissue”.
